# Measurements published in patent publication US10301286B2, “Piperazine derivative” (Astellas Pharma Inc., priority 2015, dated 2019).
# Counter-ions that a name gives are not always drawn.
# Assays:
# human MC1 receptor = human MC1 receptor (Homo sapiens (Human), UniProt Q01726); assay: Human MC receptor activation, cAMP production in cells expressing human MC1 receptor; type: cell-based; conditions: FreeStyle 293-F cells transiently expressing human MC1 receptor, α-MSH maximum = 100%
# From the text: (§1) (1) Construction of Human MC Receptor-Expressing Vector
# (§2) A human MC4 receptor gene (GenBank Accession No.: NM_005912.2), a human MC1 receptor gene (GenBank Accession No.: NM_002386.3), or a human MC3 receptor gene (GenBank Accession No.: NM_019888.3) was introduced into an expression vector pcDNA™ 3.1/V5-His TOPO (registered trademark) (Thermo Fisher Scientific Inc.).
# (§3) (2) Construction of Cells Transiently Expressing Human MC Receptor
# (§4) An expression vector for a human MC4, MC1, or MC3 receptor was introduced into FreeStyle™ 293-F cell (Thermo Fisher Scientific Inc., product number: R790-07). For the introduction, electroporation was employed. That is, 1×10^7 FreeStyle™ 293-F cell were suspended in 80 μL of an electroporation buffer (Thermo Fisher Scientific Inc., product number: B201-100), and 20 μg of the expression vector was added thereto. The resultant was put into a cuvette (OC-100 Processing Assembly, MaxCyte, Inc.) and electroporated with MaxCyte SIX (registered trademark) (MaxCyte, Inc.). The cells were cultured over one day, suspended in a Cell Banker (registered trademark) 1 (JUJI FIELD Inc.), product number: BLC-1), and stored frozen until their use.
# (§5) (3) Measurement of Amount of cAMP Produced
# (§6) Measurement was carried out by using a LANCE (registered trademark) Ultra cAMP Kit (PerkinElmer, Inc.) in accordance with the attached instructions. That is, after dissolution in DMSO, the test compound (a final concentration of 1 pM to 30 μM) diluted with an assay buffer (Hank's balanced salt solution, 5 mM 4-(2-hydroxyethyl)-1-piperazineethanesulfonic acid (HEPES), 0.5 mM 3-isobutyl-1-methylxanthine (IBMX), 0.1% bovine serum albumin, pH 7.4), or α-MSH (Bachem Inc., a final concentration of 1 pM to 30 μM) was added to OptiPlate-384 (PerkinElmer, Inc.). Furthermore, a suspension of cells transiently expressing the human MC4, MC1, or MC3 receptor prepared by using the assay buffer was added thereto at 1,000 cells/well, followed by being left to stand at room temperature for about 1 hour. Thereafter, an Eu-cAMP tracer solution and an ULight™-anti-cAMP solution were added thereto, followed by being left to stand at room temperature for about 1 hour. The amount of cAMP was calculated using EnVision (registered trademark) (PerkinElmer Inc.).
# (§7) For the agonistic activity, an efficacy (EC50 (μM)) was calculated by a non-linear regression method with a Sigmoid-Emax model, by defining the maximum reaction with α-MSH as 100% and the reaction with the vehicle alone as 0%, respectively.
# human MC4 receptor = human MC4 receptor (Homo sapiens (Human), UniProt P32245); assay: Human MC receptor activation, cAMP production in cells expressing human MC4 receptor; type: cell-based; conditions: FreeStyle 293-F cells transiently expressing human MC4 receptor, α-MSH maximum = 100%
# From the text: as §1, §2, §3, §4, §5, §6, §7
# human MC3 receptor = human MC3 receptor (Homo sapiens (Human), UniProt P41968); assay: Human MC receptor activation, cAMP production in cells expressing human MC3 receptor; type: cell-based; conditions: FreeStyle 293-F cells transiently expressing human MC3 receptor, α-MSH maximum = 100%
# From the text: as §1, §2, §3, §4, §5, §6, §7
# Male SD rats = assay: Rat erection-inducing action; type: in vivo; conditions: 10 mg/kg intravenously, erections up to one hour after administration, vs vehicle, P<0.05
# Protocol: Male SD rats (Charles River Laboratories Japan, Inc.) were used. A test compound (10 mg/kg) or the vehicle (20% dimethyl acetamide, 10% Cremophor (registered trademark), 70% physiological saline) was administered intravenously through the tail vein. After administration, the rats were transferred to transparent observation cages made of plastic to measure the erection times of up to one hour after administration. The measurements were carried out for five groups (3 to 7 animals per group): vehicle groups, Example compound groups (Ex 87, 88, and 89), and THIQ group, which had been known as an MC4 receptor agonist (J. Med. Chem., 45, 4589-4593 (2002)), as a positive control. For a statistical significance test, Dunnett's multiple comparison test was used for the comparison with vehicle control group, and it was determined whether there was an erection-inducing effect with a statistically significant difference (P<0.05).
# Chain of human MC3 receptor (P41968 whole entry): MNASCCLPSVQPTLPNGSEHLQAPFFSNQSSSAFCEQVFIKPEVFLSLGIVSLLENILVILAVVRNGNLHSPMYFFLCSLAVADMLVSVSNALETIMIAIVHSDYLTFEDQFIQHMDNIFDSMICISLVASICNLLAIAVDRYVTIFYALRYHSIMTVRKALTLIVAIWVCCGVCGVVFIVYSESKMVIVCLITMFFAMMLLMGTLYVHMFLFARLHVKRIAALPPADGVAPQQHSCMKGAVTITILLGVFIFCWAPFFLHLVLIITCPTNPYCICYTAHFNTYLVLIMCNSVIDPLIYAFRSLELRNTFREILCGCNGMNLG
# Chain of human MC1 receptor (Q01726 whole entry): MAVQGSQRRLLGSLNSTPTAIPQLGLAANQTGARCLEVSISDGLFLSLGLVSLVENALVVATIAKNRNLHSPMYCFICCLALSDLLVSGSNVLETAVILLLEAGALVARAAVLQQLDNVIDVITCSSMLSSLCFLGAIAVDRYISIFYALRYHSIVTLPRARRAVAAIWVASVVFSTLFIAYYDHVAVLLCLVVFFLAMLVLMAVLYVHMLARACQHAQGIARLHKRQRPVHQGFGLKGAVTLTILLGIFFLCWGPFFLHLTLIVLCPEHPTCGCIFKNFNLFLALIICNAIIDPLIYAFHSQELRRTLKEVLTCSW
# Chain of human MC4 receptor (P32245 whole entry): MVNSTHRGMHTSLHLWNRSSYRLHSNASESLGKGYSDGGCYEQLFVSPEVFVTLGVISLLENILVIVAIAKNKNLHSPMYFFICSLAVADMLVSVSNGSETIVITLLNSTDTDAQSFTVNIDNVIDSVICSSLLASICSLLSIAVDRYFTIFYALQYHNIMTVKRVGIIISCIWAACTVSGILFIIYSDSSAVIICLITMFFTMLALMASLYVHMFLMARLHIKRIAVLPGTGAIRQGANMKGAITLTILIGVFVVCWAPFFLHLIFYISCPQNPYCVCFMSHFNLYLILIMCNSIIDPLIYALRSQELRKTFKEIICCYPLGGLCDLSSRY
SMILES,EC50 (human MC1 receptor) [µM],EC50 (human MC4 receptor) [µM],EC50 (human MC3 receptor) [µM],erection-inducing effect (Male SD rats)
"C[C@@H]1CN([C@@H](Cc2ccc3ccccc3c2)C(=O)O)C[C@H](C)N1C(=O)[C@@H]1CN(C(C)(C)C)C[C@H]1c1ccc(F)cc1F [Example 6, (2S)-2-[(3R,5S)-4-{[(3S,4R)-1-tert-butyl-4-(2,4-difluorophenyl)pyrrolidin-3-yl]carbonyl}-3,5-dimethylpiperazin-1-yl]-3-(2-naphthyl)propanoic acid dihydrochloride]",6.4,0.48,> 30,–
C[C@H]1CN([C@@H](Cc2ccc(C(F)(F)F)cc2)C(=O)O)CCN1C(=O)[C@@H]1CN(C(C)(C)C)C[C@H]1c1ccc(F)cc1F [Example 13],–,0.048,5,–
C[C@@H]1CN(C(=O)[C@@H]2CN(C(C)(C)C)C[C@H]2c2ccc(F)cc2F)CCN1C(Cc1ccc(Cl)c(Cl)c1)C(=O)O (stereo partly drawn) [Example 15],–,0.49,–,–
C[C@@H]1CN(C(=O)[C@@H]2CN(C(C)(C)C)C[C@H]2c2ccc(F)cc2F)CCN1C(Cc1ccc(Cl)c(Cl)c1)C(=O)O (stereo partly drawn) [Example 16],–,4.9,–,–
CC(C)(C)N1C[C@@H](C(=O)N2CCN([C@@H](Cc3ccc4ccccc4c3)C(=O)O)CC23CC3)[C@H](c2ccc(F)cc2F)C1 [Example 17],–,2.4,–,–
C[C@H]1CN([C@@H](Cc2ccc(C#N)cc2)C(=O)O)CCN1C(=O)[C@@H]1CN(C(C)(C)C)C[C@H]1c1ccc(F)cc1F [Example 21],–,1.7,–,–
CN(C)CC[C@H]1CN([C@@H](Cc2ccc3ccccc3c2)C(=O)O)CCN1C(=O)[C@@H]1CN(c2ccc(=O)n(C)n2)C[C@H]1c1ccc(F)cc1F [Example 24],15,0.0032,0.58,–
COC[C@H]1CN([C@@H](Cc2ccc3c(c2)CCC3)C(=O)O)CCN1C(=O)[C@@H]1CN(c2ccc(F)cc2)C[C@H]1c1ccc(F)cc1F [Example 27],–,1,–,–
C[C@H]1CN([C@@H](Cc2ccc3c(c2)CCC3)C(=O)O)CCN1C(=O)[C@@H]1CN(C(C)(C)CO)C[C@H]1c1ccc(F)cc1F [Example 28],3.9,0.15,10,–
C[C@H]1CN([C@@H](Cc2ccc3c(c2)CCC3)C(=O)O)CCN1C(=O)[C@@H]1CN(c2ccc(C(F)(F)F)nn2)C[C@H]1c1ccc(F)cc1F [Example 33],–,0.61,–,–
C[C@H]1CN([C@@H](Cc2ccc3c(c2)CCC3)C(=O)O)CCN1C(=O)[C@@H]1CN(C(=O)C2CC2)C[C@H]1c1ccc(F)cc1F [Example 35],–,0.14,–,–
CC(C)(C)N1C[C@@H](C(=O)N2CCN([C@@H](Cc3ccc4c(c3)CCC4)C(=O)O)C[C@@H]2CC2CC2)[C@H](c2ccc(F)cc2F)C1 [Example 36],–,0.0019,–,–
COc1ccc(C2CN(C(C)(C)C)CC2C(=O)N2CCN([C@@H](Cc3ccc4c(c3)CCC4)C(=O)O)C[C@@H]2C)cc1 (stereo partly drawn) [Example 45],–,1.1,–,–
C[C@H]1CN([C@@H](Cc2ccc3c(c2)CCC3)C(=O)O)CCN1C(=O)C1CN(C(C)(C)C)CC1c1ccc(C#N)cc1F (stereo partly drawn) [Example 47],> 30,0.062,11,–
CC[C@H]1CN([C@@H](Cc2ccc3ccccc3c2)C(=O)O)CCN1C(=O)[C@@H]1CN(C(C)=O)C[C@H]1c1ccc(F)cc1F [Example 50],–,0.064,–,–
C[C@H]1CN([C@@H](Cc2c[nH]c3ccccc23)C(=O)O)CCN1C(=O)[C@@H]1CN(C(C)(C)C)C[C@H]1c1ccc(F)cc1F [Example 53],–,0.19,–,–
C[C@H]1CN([C@@H](Cc2ccc3c(c2)CCC3)C(=O)O)CCN1C(=O)C1CN(C(C)(C)C)CC1c1ccc(Cl)s1 (stereo partly drawn) [Example 55],–,0.27,–,–
C[C@H]1CN([C@@H](CC2CCCCC2)C(=O)O)CCN1C(=O)[C@@H]1CN(C(C)(C)C)C[C@H]1c1ccc(Cl)cc1F [Example 57],1.9,0.12,2.4,–
C[C@H]1CN([C@@H](Cc2ccc3c(c2)CCC3)C(=O)O)CCN1C(=O)[C@@H]1CN(C2(C)CC2)C[C@H]1c1ccc(Cl)cc1F [Example 68],–,0.53,–,–
COc1ccc(C[C@@H](C(=O)O)N2CCN(C(=O)[C@@H]3CN(C(C)(C)C)C[C@H]3c3ccc(Cl)cc3F)[C@@H](C)C2)c(F)c1 [Example 69],0.72,0.0051,2.9,–
C[C@H]1CN([C@@H](Cc2ccc(OC(F)F)cc2)C(=O)O)CCN1C(=O)[C@@H]1CN(C(C)(C)C)C[C@H]1c1ccc(Cl)cc1F [Example 72],2.1,0.04,5.3,–
Cc1ccc(C[C@@](C)(C(=O)O)N2CCN(C(=O)[C@@H]3CN(C4CCOCC4)C[C@H]3c3ccc(F)cc3F)[C@@H](C)C2)c(F)c1 [Example 74],1.4,0.03,1,–
Cc1ccc([C@H](C)[C@@H](C(=O)O)N2CCN(C(=O)[C@@H]3CN(C4CCOCC4)C[C@H]3c3ccc(Cl)cc3F)[C@@H](C)C2)cc1 [Example 78],1,0.016,0.68,–
C[C@H]1CN([C@@H](Cc2ccc3c(c2)CCC3)C(=O)O)CCN1C(=O)C1CN(C(C)(C)C)CC1c1ccc2c(c1)CCC2 (stereo partly drawn) [Example 83],–,0.19,–,–
Cc1ccc(C[C@@H](C(=O)O)N2CCN(C(=O)C3CN(C4(C)CCOCC4)CC3c3ccc(F)cc3F)[C@@H](C)C2)c(F)c1 (stereo partly drawn) [Example 84],–,0.018,–,–
C[C@H]1CN([C@@H](Cc2ccc(C3CC3)cc2F)C(=O)O)CCN1C(=O)[C@@H]1CN(C2CCOCC2)C[C@H]1c1ccc(Cl)cc1F [Example 92],1.7,0.012,1.8,–
"O=C(N[C@H](Cc1ccc(Cl)cc1)C(=O)N1CCC(Cn2cncn2)(C2CCCCC2)CC1)[C@H]1Cc2ccccc2CN1 [THIQ, reference compound]",–,–,–,exhibited a significant erection-inducing effect
